Values after ≈ are worked out from the molar mass of the structure shown.
Test: Solubility in ethyl acetate by fractionation and phase separation, HPLC analysis of the solvent layer
Assay type: physicochemical

| solubility at 2 h (organic solvent or mixture) | SMILES | solubility in EA (ethyl acetate, mixture 10:1:2:2 dissolved at 30-100 g/L 1,3-propanediol, left alone for 2 hours, upper solvent layer analysed by HPLC) |
| --- | --- | --- |
| – | CC(O)CO (centres unmarked) [1,2-propanediol] | 5 to 7 g/L |
| 3000 to 6000 µg/mL (≈ 32.6 to 65.2 mM) | OCC(O)CO [glycerol] | – |

Reference: patent publication US7488855B2 (CJ Corporation, priority 2004, dated 2009)
